In patent publication US4401822A, “Derivatives of 4-amino-5-alkyl sulphonyl orthoanisamides” (Societe de'Etudes Scientifiques et Industrielles de …, priority 1978, dated 1983):
“Also recorded” adds a separate entry of the source. Structures can show the parent of a compound that is named as a salt. Where two headings read alike, the source gives them in different places.

Legend:
[1] = test system: serotonin; test: antiserotonin action in connection with stomach ulceration in the rat; format: in vivo; conditions: sc
Procedure: The antiserotonin action in connection with stomach ulceration has been studied in the rat under the following conditions:
30 mg/kg of serotonin is administered subcutaneously to female rats in two stages, with an interval of 16 hours. The product being studied is administered subcutaneously at the same time as the serotonin, in two stages with increasing doses. A group of 30 animals is used for each dose and a group of 60 animals is used as the control. The animals are sacrificed 22 hours after the first injection of serotonin, and their stomachs are taken out and examined. The percentage protection for each dose studied is determined, then the DE50, the dose protecting 50% of the animals, from gastric ulceration, is measured graphically.

[2] = test system: apomorphine; test: antiemetic power relative to apomorphine, dogs, method of Chen and Ensor; format: in vivo, dog; conditions: s.c. 30 minutes before apomorphine 100 μg/kg s.c.; for ED50: Canis lupus familiaris, sc, read-out: Antiapomorphine ED50 in the dog
Procedure: The compounds of the invention have undergone other pharmacodynamic tests, and in particular their antiemetic power relative to apomorphine has been measured.
The test has been carried out on dogs by the method of Chen and Ensor.
The compounds of the invention are administered subcutaneously, 30 minutes before the apomorphine, which is administered subcutaneously in a dose of 100 μg/kg.

[3] = acute toxicity in mice (LD50); format: in vivo; conditions: mouse, in vivo, male mouse
Text: (§1) The acute toxicity of the compounds according to the invention has been studied in mice. The lethal doses 50 are set out in the table which follows:
(§2) LD50 DETERMINED IN THE MALE MOUSE -

[4] = test system: serotonin; test: antiserotonin action in respect of bronchospasm in the guinea-pig, method of Konzett and Rossler; format: in vivo; conditions: serotonin 20 μg/kg intravenously, anaesthetised guinea-pigs
Procedure: The antiserotonin action in respect of bronchospasm has been studied in the guinea-pig under the following conditions:
The bronchospasm is recorded by the method of Konzett and Rossler, which comprises connecting the trachea of the guinea-pig to an artificial respiration pump, which passes a constant volume of air, slightly greater than the respiratory capacity of the animal, into the bronchi at a physiological rhythm. The excess quantity of air, which varies according to the diameter of the bronchi, is discharged to a special manometric device which measures the volume of air at each inhalation.
The serotonin is administered intravenously to the guinea-pigs in a dose of 20 μg/kg. The guinea-pigs have previously been anaesthetised with ethyl carbamate, thus producing a bronchial spasm.
The product to be studied is then administered intravenously, after which the administration of serotonin is repeated one minute later. The percentage inhibition of bronchospasm is measured for each dose of the product to be studied, then the antiserotonin DE50 relative to bronchospasm in the guinea-pig is determined.

[5] = test system: male rats; test: cataleptic action in male rats, subcutaneous; format: in vivo, rat; conditions: 200 mg/kg subcutaneously, after 7 hours
Procedure: The cataleptic action has been studied as follows.
Benzamides are administered subcutaneously to male rats. The criterion taken for the cataleptic state is that the animal should be immobile for 30 seconds with its rear limbs apart, arranged carefully on wooden cubes 4 cm high, which thus puts the animal in an unaccustomed and uncomfortable position.
The cataleptic action is measured when the effect is at its maximum, i.e. 5 to 7 hours after the substance has been administered.

[6] = test system: male mouse; test: acute toxicity in mice (LD50); format: in vivo
Text: as §1, §2

[7] = test system: patients suffering from migraine; test: clinical treatment of migraine; format: in vivo; conditions: single patients, 100-300 mg per day
Procedure: Compound (1) was administered in a dose of three tablets per day (300 mg) to a patient suffering from frequent migraines; these obliged hereto interrupt any professional activity for three or four days per month.
Compound (1) was administered in a daily dose of 300 mg taken in three portions, to two twin brothers who suffered each month from attacks of migraine accompanied by vomiting.
Compound (2) was administered continuously, in doses of two tablets per day (200 mg), to a person who had suffered from attacks of migraine for four years. The attacks had not responded to curative treatment (ergotamine and caffeine) or preventive treatment.
Compound (2) was administered in doses of three tablets per day (300 mg) to a person suffering from quasi permanent occipital cephalalgia and several times a week from attacks of migraine with right hemicrania, photophobia and nausea.

[8] = test system: patients suffering from catatonic hebephrenia; test: clinical treatment of catatonic hebephrenia; format: in vivo; conditions: 100-300 mg daily oral or intramuscular, of 21 patients
Procedure: 21 patients suffering from catatonic hebephrenia were treated with compound (1), a daily dose of 100-300 mg being given orally or by intramuscular injection. In 13 cases removal of inhibitions was observed, sometimes with a reversal of mood, which made it possible to make contact with the patient.

[9] = test system: alcoholic or heroin addicts; format: in vivo; conditions: 200 mg per day oral or intramuscular, of 30 patients
Procedure: Thus for example, 200 mg per day of compound (1) was administered orally or by intramuscular injection to 30 patients who were alcoholic or heroin addicts. In 28 cases the product acted rapidly and the drug addicts asked for more. Its effect is different from that of opiates and the main antalgics.

[10] = test system: patients suffering from sudden attacks of delirium; test: clinical treatment of sudden attacks of delirium; format: in vivo; conditions: 350 mg per day oral or intramuscular
Procedure: 41 patients suffering from sudden attacks of delirium were treated with 350 mg per day of compound (2), administered orally or by intramuscular injection.

[11] = Rattus norvegicus, 22 h, female rats, serotonin 30 mg/kg s.c. in two stages, dose protecting 50% of the animals, read-out: Antiserotonin ED50 in respect of stomach ulceration, in the rat

SMILES	ED50 [1, 11] [mg/kg]	LD50 ([3]; ip, I.P.) [mg/kg]	LD50 ([3]; iv) [mg/kg]	LD50 ([3]; po) [mg/kg]	LD50 ([3]; sc, subcutaneous) [mg/kg]	ED50 [2] [mg/kg]	also measured
CCN1CCCC1CNC(=O)c1cc(S(=O)(=O)CC)c(N)cc1OC (single isomer, unassigned) [Compound 4, Dextrorotatory tartrate of N-[1-ethyl 2-pyrrolidylmethyl]2-methoxy 4-amino 5-ethylsulphonyl benzamide]	0.46	188	39.8	1560 to 1620	254 to 263		Antiapomorphine ED50 in the dog [2]: 12 μg/kg/s.c.; Antiserotonin ED50 relative to bronchospasm in the guinea-pig [4]: 106 μg/kg/IV
CCN1CCCC1CNC(=O)c1cc(S(=O)(=O)CC)c(N)cc1OC (single isomer, unassigned) [Compound 5, Levorotatory tartrate of N-[1-ethyl 2-pyrrolidylmethyl]2-methoxy 4-amino 5-ethylsulphonyl benzamide]							Antiapomorphine ED50 in the dog [2]: 0.28 μg/kg/s.c.; cataleptic state, % of the animals [5]: 30%; LD50 ([6]; I.P.): 122 to 128 mg/kg; LD50 ([6]; intravenous): 44.8 mg/kg; LD50 ([6]; oral): 1109 to 1160 mg/kg; LD50 ([6]; subcutaneous): 137 to 149 mg/kg
CCS(=O)(=O)c1cc(C(=O)NCC2CCCN2C)c(OC)cc1N (single isomer, unassigned) [Compound 6, Dextrorotatory N-1-methyl 2-pyrrolidylmethyl 2-methoxy 4-amino 5-ethylsulphonyl benzamide]	0.34 to 0.44	304 to 322	62 to 64	1190 to 1260	380 to 396	0.008	
CCN1CCCC1CNC(=O)c1cc(S(=O)(=O)CC)c(N)cc1OC (stereo not drawn) [Compound 1, N-(1-ethyl 2-pyrrolidylmethyl) 2-methoxy 4-amino 5-ethylsulphonyl benzamide]	1	175 to 180	56 to 60	1020 to 1050	224 to 250	0.00029	effect on migraine (in words) [7]: The migraines decreased from the first month and disappeared altogether from the second month; also recorded: For one of the twins the migraine disappeared immediately; also recorded: For the other the pain disappeared from the second method and only a few attacks of nausea persisted; Antiserotonin ED50 relative to bronchospasm in the guinea-pig [4]: 74 μg/kg/IV; cases with removal of inhibitions [8]: 13 cases; cases in which the product acted rapidly [9]: 28 cases
CCS(=O)(=O)c1cc(C(=O)NCC2CCCN2C)c(OC)cc1N (stereo not drawn) [Compound 2, N-[1-methyl 2-pyrrolidylmethyl]2-methoxy 4-amino 5-ethylsulphonyl benzamide]	0.4	210 to 217	56 to 57	1330	280	0.0008	effect on migraine (in words) [7]: their intensity is decreasing; also recorded: From the third week the migraine attacks disappeared completely; antidepressive action ([10]; 41 patients): there was an antidepressive action; tolerance ([10]; 41 patients, all cases): excellent tolerance in all cases; cases with a very good antipsychotic action in sudden attacks of delirium ([10]; of 41 patients): 38 cases
C=CCN1CCCC1CNC(=O)c1cc(S(=O)(=O)CC)c(N)cc1OC (stereo not drawn) [Compound 3, N-[1-allyl 2-pyrrolidylmethyl]2-methoxy 4-amino 5-ethylsulphonyl benzamide]	0.65	216 to 217	106 to 107	2230 to 2380	312 to 330	0.00065	
CCCS(=O)(=O)c1cc(C(=O)NCC2CCCN2CC)c(OC)cc1N (stereo not drawn) [Compound 7, N(1ethyl 2pyrrolidylmethyl) 2methoxy 4amino 5propylsulphonyl benzamide]	3.2	160 to 165	43 to 46.8	570 to 629	140 to 144	0.0016	
CCN1CCCC1CNC(=O)c1cc(S(C)(=O)=O)c(N)cc1OC (stereo not drawn) [Compound 8, N-[1-ethyl 2-pyrrolidylmethyl]2-methoxy 4-amino 5-methylsulphonyl benzamide]	3	234 to 238	46.5 to 50	625 to 660	208 to 225	0.0027	
COc1cc(N)c(S(C)(=O)=O)cc1C(=O)NCC1CCCN1C (stereo not drawn) [Compound 9, N-[1-methyl 2-pyrrolidylmethyl]2-methoxy 4-amino 5-methylsulphonyl benzamide]	1.14	200 to 216	54		202	0.007	
CCN1CCCC1CNC(=O)c1cc(S(N)(=O)=O)ccc1OC (stereo not drawn) [sulpiride, reference compound]							ED50 ([1]; rat, comparator value in text, read-out: antiserotonin ED50 relative to stomach ulceration in the rat (comparator, text)): 110 mg/kg
